From ChEMBL document CHEMBL4184161, “Novel all-hydrocarbon stapled p110α[E545K] peptides as blockers of the oncogenic p110α[E545K]-IRS1 interaction” (Bioorg Med Chem Lett, 2017)
Active and inactive are the calls of the source. No cut-off for these calls is given here. Numbered stars: 1 amine (or outer) side, 2 acyl side, 3 side chain; on linkers, the order of the positions; unused ones are H or OH. Bridge positions count the residues as written; N and C are the ends. Square brackets hold non-standard residues; d marks the D form. Peptide text beside a SMILES is read from it. X1 = C[C@](CCCCCC=[*:3])(N[*:1])C(=O)[*:2]; X2 = C[C@@](CCCCC=[*:3])(N[*:1])C(=O)[*:2]; R8 = C=CCCCCCC[C@@](C)(N)C(=O)O; S5 = C=CCCC[C@](C)(N)C(=O)O

Experiments:
[1] = Proteolytic stability of the compound assessed as Streptomyces griseus pronase-mediated compound hydrolysis by RP-HPLC method; format: ADME
[2] = biological target: RAC-alpha serine/threonine-protein kinase (Homo sapiens) (UniProt P31749); assay: Inhibition of p110alpha[E545K]-IRS1 interaction-initiated Akt phosphorylation at Ser473 residue in DLD1 human colon cancer cells at 50 uM by Western blot analysis
RAC-alpha serine/threonine-protein kinase (Homo sapiens), sequence (P31749 whole entry): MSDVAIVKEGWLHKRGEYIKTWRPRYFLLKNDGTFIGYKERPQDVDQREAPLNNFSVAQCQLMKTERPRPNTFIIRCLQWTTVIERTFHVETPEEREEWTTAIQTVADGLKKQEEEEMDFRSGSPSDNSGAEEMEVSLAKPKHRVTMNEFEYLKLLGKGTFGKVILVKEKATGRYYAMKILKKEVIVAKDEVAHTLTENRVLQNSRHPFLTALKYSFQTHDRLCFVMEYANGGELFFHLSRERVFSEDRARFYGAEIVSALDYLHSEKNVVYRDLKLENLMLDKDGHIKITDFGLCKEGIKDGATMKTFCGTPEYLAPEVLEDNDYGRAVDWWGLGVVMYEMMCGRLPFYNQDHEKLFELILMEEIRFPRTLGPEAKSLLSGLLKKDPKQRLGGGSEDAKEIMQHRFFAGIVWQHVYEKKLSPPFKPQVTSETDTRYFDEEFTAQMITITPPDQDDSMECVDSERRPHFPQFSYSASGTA

SMILES	Stability [1]	inhibition [2]
CC[C@H](C)[C@H](NC(=O)[C@H](CCC(=O)O)NC(=O)[C@H](CO)NC(C)=O)C(=O)N[C@H](C(=O)N[C@@H](CCCCN)C(=O)N[C@@H](CCC(N)=O)C(=O)N[C@@H](CCC(=O)O)C(=O)N[C@@H](CCCCN)C(=O)N[C@@]1(C)CCC/C=C/CCC[C@@](C)(C(=O)N[C@@H](Cc2cnc[nH]2)C(=O)N[C@@H](CCCNC(=N)N)C(=O)N[C@@H](Cc2cnc[nH]2)C(=O)N[C@@H](Cc2ccc(O)cc2)C(=O)N[C@@H](CS)C(N)=O)NC(=O)[C@H](Cc2c[nH]c3ccccc23)NC(=O)[C@H](CC(C)C)NC(=O)[C@H](Cc2ccccc2)NC1=O)[C@@H](C)O (Ac-SEITKQEK[S5]FLW[S5]HRHYC-NH2; staple (E) 9-13)	Stable	Active
CC[C@H](C)[C@H](NC(=O)[C@H](CCC(=O)O)NC(=O)[C@H](CO)NC(C)=O)C(=O)N[C@H](C(=O)N[C@@H](CCCCN)C(=O)N[C@@H](CCC(N)=O)C(=O)N[C@@H](CCC(=O)O)C(=O)N[C@@H](CCCCN)C(=O)N[C@]1(C)CCCCCC=CCCCC[C@@](C)(C(=O)N[C@@H](Cc2ccc(O)cc2)C(=O)N[C@@H](CS)C(N)=O)NC(=O)[C@H](CCCNC(=N)N)NC(=O)[C@H](Cc2cnc[nH]2)NC(=O)[C@H](CO)NC(=O)[C@H](Cc2c[nH]c3ccccc23)NC(=O)[C@H](CC(C)C)NC(=O)[C@H](Cc2ccccc2)NC1=O)[C@@H](C)O (Ac-SEITKQEK[X1]FLWSHR[X2]YC-NH2; staple 9-16)	Stable	–
CC[C@H](C)[C@H](NC(=O)[C@H](CCC(=O)O)NC(=O)[C@H](CO)NC(C)=O)C(=O)N[C@H](C(=O)N[C@@H](CCCCN)C(=O)N[C@]1(C)CCCCCCC=CCCC[C@@](C)(C(=O)N[C@@H](Cc2cnc[nH]2)C(=O)N[C@@H](CCCNC(=N)N)C(=O)N[C@@H](Cc2cnc[nH]2)C(=O)N[C@@H](Cc2ccc(O)cc2)C(=O)N[C@@H](CS)C(N)=O)NC(=O)[C@H](Cc2c[nH]c3ccccc23)NC(=O)[C@H](CC(C)C)NC(=O)[C@H](Cc2ccccc2)NC(=O)[C@H](CC(=O)O)NC(=O)[C@H](CCCCN)NC(=O)[C@H](CCC(=O)O)NC1=O)[C@@H](C)O (Ac-SEITK[R8]EKDFLW[S5]HRHYC-NH2; staple 6-13)	Stable	–

The remaining lines, values ahead:

Stability [1]	inhibition [2]	SMILES
–	Active	CC[C@H](C)[C@H](NC(=O)[C@H](CCC(=O)O)NC(C)=O)C(=O)N[C@H](C(=O)N[C@@H](CCCCN)C(=O)N[C@]1(C)CCCCCCC=CCCC[C@@](C)(C(=O)N[C@@H](Cc2cnc[nH]2)C(=O)N[C@@H](CCCNC(=N)N)C(N)=O)NC(=O)[C@H](Cc2c[nH]c3ccccc23)NC(=O)[C@H](CC(C)C)NC(=O)[C@H](Cc2ccccc2)NC(=O)[C@H](CC(=O)O)NC(=O)[C@H](CCCCN)NC(=O)[C@H](CCC(=O)O)NC1=O)[C@@H](C)O (stereo in doubt; form 1)
Stable	–	CC[C@H](C)[C@H](NC(=O)[C@H](CCC(=O)O)NC(C)=O)C(=O)N[C@H](C(=O)N[C@@H](CCCCN)C(=O)N[C@]1(C)CCCCCCC=CCCC[C@@](C)(C(=O)N[C@@H](Cc2cnc[nH]2)C(=O)N[C@@H](CCCNC(=N)N)C(N)=O)NC(=O)[C@H](Cc2c[nH]c3ccccc23)NC(=O)[C@H](CC(C)C)NC(=O)[C@H](Cc2ccccc2)NC(=O)[C@H](CC(=O)O)NC(=O)[C@H](CCCCN)NC(=O)[C@H](CCC(=O)O)NC1=O)[C@@H](C)O (stereo in doubt; form 2) [listing 1 of 2 here]
–	Active	CC[C@H](C)[C@H](NC(=O)[C@H](CCC(=O)O)NC(C)=O)C(=O)N[C@H](C(=O)N[C@@H](CCCCN)C(=O)N[C@]1(C)CCCCCCC=CCCC[C@@](C)(C(=O)N[C@@H](Cc2cnc[nH]2)C(=O)N[C@@H](CCCNC(=N)N)C(N)=O)NC(=O)[C@H](Cc2c[nH]c3ccccc23)NC(=O)[C@H](CC(C)C)NC(=O)[C@H](Cc2ccccc2)NC(=O)[C@H](CC(=O)O)NC(=O)[C@H](CCCCN)NC(=O)[C@H](CCC(=O)O)NC1=O)[C@@H](C)O (stereo in doubt; form 2) [listing 2 of 2 here]
